Patent publication US8802597B2, “Herbicidal pyrimidines” (E I du Pont de Nemours and Company, priority 2003, dated 2014)
Read-outs that look alike come from different tables or passages of the source.

What was measured:
Assay type in all cases: in vivo
[1] = tested on: common ragweed (Ambrosia elatior); experiment: Test C pre/postemergence; conditions: for pest or weed control at 31 g/ha / pest or weed control at 62 g/ha / pest or weed control at 125 g/ha / pest or weed control at 250 g/ha: Ambrosia artemisiifolia; for pest or weed control at 31 g/ha: 31 g ai/ha
Excerpt: (§1) Seeds or nutlets of plant species selected from bermudagrass (Cynodon dactylon), Surinam grass (Brachiaria decumbens), cocklebur (Xanthium strumarium), corn (Zea mays), crabgrass (Digitaria sanguinalis), woolly cupgrass (Eriochloa villosa), giant foxtail (Setaria faberii), goosegrass (Eleusine indica), johnsongrass (Sorghum halepense), kochia (Kochia scoparia), lambsquarters (Chenopodium album), morningglory (Ipomoea coccinea), eastern black nightshade (Solanum ptycanthum), yellow nutsedge (Cyperus esculentus), pigweed (Amaranthus retroflexus), common ragweed (Ambrosia elatior), soybean (Glycine max), common (oilseed) sunflower (Helianthus annuus), and velvetleaf (Abutilon theophrasti) were planted and treated preemergence with test chemicals formulated in a non-phytotoxic solvent mixture which included a surfactant.
(§2) At the same time, plants selected from these crop and weed species and also winter barley (Hordeum vulgare), blackgrass (Alopecurus myosuroides), canarygrass (Phalaris minor), chickweed (Stellaria media), downy brome (Bromus tectorum), green foxtail (Setaria viridis), Italian ryegrass (Lolium multiflorum), wheat (Triticum aestivum), wild oat (Avena fatua) and windgrass (Apera spica-venti) were treated with postemergence applications of some of the test chemicals formulated in the same manner. Plants ranged in height from 2 to 18 cm (1- to 4-leaf stage) for postemergence treatments. Plant species in the flooded paddy test consisted of rice (Oryza sativa), umbrella sedge (Cyperus difformis), duck salad (Heteranthera limosa) and barnyardgrass (Echinochloa crus-galli) grown to the 2-leaf stage for testing. Treated plants and controls were maintained in a greenhouse for 12 to 14 days, after which time all species were compared to controls and visually evaluated. Plant response ratings, summarized in Table C, are based on a scale of 0 to 100 where 0 is no effect and 100 is complete control. A dash (-) response means no test result.

corn (Zea mays) = experiment: Test C pre/postemergence; conditions: for Corn plant response rating (crop injury, 0 = no effect, 100 = complete kill) at 31 g/ha: 31 g ai/ha
Excerpt: as §1, §2

[2] = tested on: lambsquarters (Chenopodium album); experiment: Test C pre/postemergence; conditions: for pest or weed control at 31 g/ha / pest or weed control at 62 g/ha / pest or weed control at 125 g/ha / pest or weed control at 250 g/ha: Chenopodium album; for pest or weed control at 31 g/ha: 31 g ai/ha
Excerpt: as §1, §2

[3] = tested on: cocklebur (Xanthium strumarium); experiment: Test C pre/postemergence; conditions: for pest or weed control at 31 g/ha: 31 g ai/ha
Excerpt: as §1, §2

[4] = tested on: chickweed (Stellaria media); experiment: Test C postemergence
Outline: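 We sprayed seeded pots preemergence and 2–18 cm seedlings postemergence with test chemicals in a non-phytotoxic solvent mixture including surfactant. Greenhouse plants were visually compared with untreated controls at 12 to 14 days and scored 0 (no effect) to 100 (complete control).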

[5] = Postemergence, 62 g ai/ha, scale 0 to 100 (0 no effect, 100 complete control)
[6] = Postemergence, 125 g ai/ha, scale 0 to 100 (0 no effect, 100 complete control)
[7] = Postemergence, 250 g ai/ha, scale 0 to 100
[8] = Postemergence, 500 g ai/ha, scale 0 to 100
[9] = Preemergence, 62 g ai/ha, scale 0 to 100, 0 no effect, 100 complete control
[10] = Preemergence, 125 g ai/ha, scale 0 to 100
[11] = Preemergence, 250 g ai/ha, scale 0 to 100
[12] = Preemergence, 500 g ai/ha, scale 0 to 100

SMILES: COC(=O)c1nc(C2CC2)nc(N)c1Br [Compound 2, methyl 6-amino-5-bromo-2-cyclopropyl-4-pyrimidinecarboxylate]
- pest or weed control at 31 g/ha ([1]; post-emergence, Postemergence, read-out: Plant response rating (scale of 0 to 100), Ragweed): 65%
- pest or weed control at 62 g/ha ([1]; post-emergence, Postemergence, 62 g ai/ha, scale 0 to 100 (0 no effect, 100 complete control), read-out: Ragweed plant response rating): 85%
- pest or weed control at 125 g/ha ([1]; post-emergence, Postemergence, 125 g ai/ha, scale 0 to 100 (0 no effect, 100 complete control), read-out: Ragweed plant response rating): 90%
- pest or weed control at 250 g/ha ([1]; post-emergence, Postemergence, 250 g ai/ha, scale 0 to 100, read-out: Plant response rating, Ragweed): 95%
- pest or weed control at 31 g/ha ([1]; pre-emergence, Preemergence, scale 0 to 100, 0 no effect, 100 complete control, read-out: Plant response rating, Ragweed): 0%
- pest or weed control at 62 g/ha ([1]; pre-emergence, Preemergence, 62 g ai/ha, scale 0 to 100, 0 no effect, 100 complete control, read-out: Plant response rating, Ragweed): 0%
- pest or weed control at 125 g/ha ([1]; pre-emergence, Preemergence, 125 g ai/ha, scale 0 to 100, read-out: Plant response rating, Ragweed): 0%
- pest or weed control at 250 g/ha ([1]; pre-emergence, Preemergence, 250 g ai/ha, scale 0 to 100, read-out: Plant response rating, Ragweed): 0%
- Corn plant response rating (crop injury, 0 = no effect, 100 = complete kill) at 31 g/ha (corn (Zea mays); Zea mays, post-emergence, Postemergence, read-out: Plant response rating (scale of 0 to 100), Corn): 15%
- Corn plant response rating (crop injury, 0 = no effect, 100 = complete kill) at 62 g/ha (corn (Zea mays); Zea mays, post-emergence, Postemergence, 62 g ai/ha, scale 0 to 100 (0 no effect, 100 complete control), read-out: Corn plant response rating): 15%
- Corn plant response rating (crop injury, 0 = no effect, 100 = complete kill) at 125 g/ha (corn (Zea mays); Zea mays, post-emergence, Postemergence, 125 g ai/ha, scale 0 to 100 (0 no effect, 100 complete control), read-out: Corn plant response rating): 20%
- Corn plant response rating (crop injury, 0 = no effect, 100 = complete kill) at 250 g/ha (corn (Zea mays); Zea mays, post-emergence, Postemergence, 250 g ai/ha, scale 0 to 100): 30%
- Corn plant response rating (crop injury, 0 = no effect, 100 = complete kill) at 31 g/ha (corn (Zea mays); Zea mays, pre-emergence, Preemergence, scale 0 to 100, 0 no effect, 100 complete control, read-out: Plant response rating, Corn): 0%
- Corn plant response rating (crop injury, 0 = no effect, 100 = complete kill) at 62 g/ha (corn (Zea mays); Zea mays, pre-emergence, Preemergence, 62 g ai/ha, scale 0 to 100, 0 no effect, 100 complete control, read-out: Plant response rating, Corn): 0%
- Corn plant response rating (crop injury, 0 = no effect, 100 = complete kill) at 250 g/ha (corn (Zea mays); Zea mays, pre-emergence, Preemergence, 250 g ai/ha, scale 0 to 100): 0%
- pest or weed control at 31 g/ha ([2]; post-emergence, Postemergence, read-out: Plant response rating (scale of 0 to 100), Lambsquarters): 100%
- pest or weed control at 62 g/ha ([2]; post-emergence, Postemergence, 62 g ai/ha, scale 0 to 100 (0 no effect, 100 complete control), read-out: Lambsquarters plant response rating): 100%
- pest or weed control at 125 g/ha ([2]; post-emergence, Postemergence, 125 g ai/ha, scale 0 to 100 (0 no effect, 100 complete control), read-out: Lambsquarters plant response rating): 100%
- pest or weed control at 250 g/ha ([2]; post-emergence, Postemergence, 250 g ai/ha, scale 0 to 100, read-out: Plant response rating, Lambsquarters): 100%
- pest or weed control at 31 g/ha ([2]; pre-emergence, Preemergence, scale 0 to 100, 0 no effect, 100 complete control, read-out: Plant response rating, Lambsquarters): 90%
- pest or weed control at 62 g/ha ([2]; pre-emergence, Preemergence, 62 g ai/ha, scale 0 to 100, 0 no effect, 100 complete control, read-out: Plant response rating, Lambsquarters): 100%
- pest or weed control at 125 g/ha ([2]; pre-emergence, Preemergence, 125 g ai/ha, scale 0 to 100, read-out: Plant response rating, Lambsquarters): 100%
- pest or weed control at 250 g/ha ([2]; pre-emergence, Preemergence, 250 g ai/ha, scale 0 to 100, read-out: Plant response rating, Lambsquarters): 100%
- pest or weed control at 31 g/ha ([3]; Xanthium strumarium, post-emergence, Postemergence, read-out: Plant response rating (scale of 0 to 100), Cocklebur): 65%
- pest or weed control at 62 g/ha ([3]; Xanthium strumarium, post-emergence, Postemergence, 62 g ai/ha, scale 0 to 100 (0 no effect, 100 complete control), read-out: Cocklebur plant response rating): 75%
- pest or weed control at 125 g/ha ([3]; Xanthium strumarium, post-emergence, Postemergence, 125 g ai/ha, scale 0 to 100 (0 no effect, 100 complete control), read-out: Cocklebur plant response rating): 85%
- pest or weed control at 250 g/ha ([3]; Xanthium strumarium, post-emergence, Postemergence, 250 g ai/ha, scale 0 to 100, read-out: Plant response rating, Cocklebur): 85%
- pest or weed control at 31 g/ha ([3]; Xanthium strumarium, pre-emergence, Preemergence, scale 0 to 100, 0 no effect, 100 complete control, read-out: Plant response rating, Cocklebur): 60%
- pest or weed control at 125 g/ha ([3]; Xanthium strumarium, pre-emergence, Preemergence, 125 g ai/ha, scale 0 to 100, read-out: Plant response rating, Cocklebur): 80%
- pest or weed control at 250 g/ha ([3]; Xanthium strumarium, pre-emergence, Preemergence, 250 g ai/ha, scale 0 to 100, read-out: Plant response rating, Cocklebur): 100%
- pest or weed control at 31 g/ha ([4]; Stellaria media, post-emergence, 31 g ai/ha, read-out: Plant response rating (scale of 0 to 100), Chickweed): 60%
- pest or weed control at 62 g/ha ([4]; Stellaria media, post-emergence, 62 g ai/ha, scale 0 to 100 (0 no effect, 100 complete control), read-out: Chickweed plant response rating): 65%
- pest or weed control at 125 g/ha ([4]; Stellaria media, post-emergence, 125 g ai/ha, scale 0 to 100, read-out: Plant response rating, Chickweed): 75%
- pest or weed control at 250 g/ha ([4]; Stellaria media, post-emergence, 250 g ai/ha, scale 0 to 100, read-out: Plant response rating, Chickweed): 95%

SMILES: CN(C)N=Cc1nc(C2CC2)nc(N)c1Br [Compound 50]
- Ragweed plant response rating [1, 5]: 20
- Ragweed plant response rating [1, 6]: 45
- Plant response rating, Ragweed [1, 7]: 45
- Plant response rating, Ragweed [1, 8]: 80
- Plant response rating, Ragweed [1, 9]: 70
- Plant response rating, Ragweed [1, 10]: 85
- Plant response rating, Ragweed [1, 11]: 95
- Plant response rating, Ragweed [1, 12]: 100
- Corn plant response rating (corn (Zea mays); [5]): 0
- Corn plant response rating (corn (Zea mays); [6]): 0
- Plant response rating, Corn (corn (Zea mays); [7]): 60
- Plant response rating, Corn (corn (Zea mays); [8]): 65
- Plant response rating, Corn (corn (Zea mays); [9]): 10
- Plant response rating, Corn (corn (Zea mays); [10]): 10
- Plant response rating, Corn (corn (Zea mays); [11]): 20
- Plant response rating, Corn (corn (Zea mays); [12]): 45
- Lambsquarters plant response rating [2, 5]: 70
- Lambsquarters plant response rating [2, 6]: 75
- Plant response rating, Lambsquarters [2, 7]: 80
- Plant response rating, Lambsquarters [2, 8]: 85
- Plant response rating, Lambsquarters [2, 9]: 95
- Plant response rating, Lambsquarters [2, 10]: 100
- Plant response rating, Lambsquarters [2, 11]: 100
- Plant response rating, Lambsquarters [2, 12]: 100
- Cocklebur plant response rating [3, 5]: 40
- Cocklebur plant response rating [3, 6]: 40
- Plant response rating, Cocklebur [3, 7]: 65
- Plant response rating, Cocklebur [3, 8]: 90
- Plant response rating, Cocklebur [3, 9]: 70
- Plant response rating, Cocklebur [3, 10]: 85
- Plant response rating, Cocklebur [3, 11]: 95
- Plant response rating, Cocklebur [3, 12]: 95
- Chickweed plant response rating ([4]; 62 g ai/ha, scale 0 to 100 (0 no effect, 100 complete control)): 0
- Chickweed plant response rating ([4]; 125 g ai/ha, scale 0 to 100 (0 no effect, 100 complete control)): 0
- Plant response rating, Chickweed ([4]; 500 g ai/ha, scale 0 to 100): 20
